In patent US20080227724A1, “Anti-Inflammatory Agents” (CAMBRIDGE UNIVERSITY TECHNICAL SERVICES LIMITED, priority 2003, published 2008):
Bridge positions count the residues as written; N and C are the ends. Square brackets hold non-standard residues; d marks the D form. Ends that are not written are not given here.

Tests used:
TNF-alpha = experiment: Sub-lethal LPS-induced endotoxemia model, circulating TNF-alpha; assay type: in vivo, CD-1 mice; conditions: for block of TNF-alpha stimulation: at a suitable dose
Protocol: The anti-inflammatory activity of the compounds of the invention was determined in vivo using a sub-lethal LPS-induced endotoxemia model. Adult male CD-1 mice (n=6 per group) were pretreated with various agents (vehicle, compounds of the invention or positive control agents such as the steroid dexamethasone) by sub-cutaneous injection 30 minutes prior to an acute inflammatory challenge with 750 μg of bacterial lipopolysaccharide (from E. Coli 0111:B4; Sigma catalog #L-4130) via the intraperitoneal route. The vehicle in each case was 0.6% DMSO, 1% carboxymethyl cellulose, or alternatively 1% carboxymethylcellulose alone. For some of the compounds, this formulation results in a finely divided suspension or slurry rather than a clear solution. Two hours after LPS challenge, the animals were sacrificed and blood was drawn by cardiac puncture. The level of the pro-inflammatory cytokine TNF-alpha was determined using the Quantikine M ELISA (R&D Systems) for murine TNF-alpha, and reported as the mean ±standard error for each group.
By 2 hours after the LPS challenge, this had increased by more than 1,000 fold to an average of 20,000 pg/ml, representing a sensitive index of inflammatory activation. Pre-treatment with known anti-inflammatory drugs (such as the steroid dexamethasone) reduced the stimulation of TNF-alpha by up to 85-95%, depending on the dose given.
In a separate series of experiments, the compounds of the invention were administered to animals as an oral suspension, formulated in the same way as for the sub-cutaneous dosing experiments, followed 1 hour later with the LPS challenge exactly as described above. […] All five compounds were maximally active at a dose below 30 mg/kg.

[1] = tested on: MCP-1 induced THP-1 cell migration; experiment: Inhibition of MCP-1 induced leukocyte migration (transwell migration assay); assay type: cell-based, human; conditions: inhibition of MCP-1 induced THP-1 cell migration, dose-response curves
Protocol: In principle, this assay consists of two chambers separated by a porous membrane. The chemoattractant is placed in the lower compartment and the cells are placed in the upper compartment. After incubation for a period at 37° C. the cells move towards the chemoattractant, and the number of cells in the lower compartment is proportional to the chemoattractant activity (relative to a series of controls). The THP-1 cell line (European Cell culture Collection) were used as the leukocyte cell population. The following procedure is used for testing the invention compounds for MCP-1 induced leukocyte migration: First, the cell suspension to be placed in the upper compartment is prepared. The THP-1 cells are pelleted by centrifugation (770×g; 4 mins) and washed with Geys Balanced Salt Solution with 1 mg/ml BSA (GBSS+BSA). This wash is then repeated, and the cells repelleted before being resuspended in a small volume of GBSS+BSA for counting, for example using a standard haemocytometer. The volume of GBSS+BSA is then adjusted depending on the number of cells present so that the cells are at final density of 4.45×10^6 cells per ml of GBSS+BSA. […] The number of cells migrated into the lower chamber under each condition can then be determined by a number of methods, including direct counting, labelling with fluorescent or radioactive markers or through the use of a vital dye. […]

[2] = assay type: in vitro ADME, human
Description: As an approach to identifying such stable analogs, various derivatives of (S)-3-(undec-10-enoyl)-aminoglutarimide have been tested for their stability in serum.

[3] = tested on: chemokine-induced migration; experiment: Chemokine-induced leukocyte migration in vitro (prior art); assay type: cell-based; conditions: parental molecule (S)-3-(undec-10-enoyl)-aminoglutarimide
[4] = cited from earlier work
[5] = oral suspension 1 hour before LPS
[6] = sub-cutaneous injection 30 minutes prior to LPS

Molecule | block of TNF-alpha stimulation (TNF-alpha; [5]) | block of TNF-alpha stimulation (TNF-alpha; [6]) | further results
C[C@@H]1C[C@H]2[C@@H]3CCC4=CC(=O)C=C[C@]4(C)[C@@]3(F)[C@@H](O)C[C@]2(C)[C@@]1(O)C(=O)CO [dexamethasone, reference compound] | – | – | reduction of the stimulation of TNF-alpha (TNF-alpha; pre-treatment, 2 hours after LPS challenge, depending on the dose given): 85-95%
(S)-3-(2′,2′-dimethyl-dodecanoyl)amino-caprolactam [Example 12] | able to block TNF-alpha stimulation | block TNF-alpha stimulation to a similar extent to dexamethasone | (S)-enantiomer more active than the (R)-enantiomer [1]: 10-50 fold
(S)-(Z)-3-(octadec-9-enoyl)amino-caprolactam [Example 10] | able to block TNF-alpha stimulation | block TNF-alpha stimulation to a similar extent to dexamethasone | –
C=CCCCCCCCCC(=O)[C@@H]1CCCNC1=O [(S)-3-(undec-10-enoyl)-tetrahydropyridin-2-one] | – | – | time completely stable in human serum ([2]; human, 7 days): at least 7 days; potency compared with the parental molecule [3]: considerably reduced potency
c(DCys-DGln-DIle-DTrp-DLys-DGln-DLys-DPro-DAsp-DLeu-DCys)-NH2 ([dC][dQ][dI][dW][dK][dQ][dK][dP][dD][dL][dC]-NH2; disulfide 1-11 (inferred)) [NR58-3.14.3] | – | – | half-life period of clearance from blood plasma ([4]; after intravenous injection): less than 30 minutes; oral bioavailability ([4]; in vivo, po): not orally bioavailable
(R)-3-hexadecanoylamino-caprolactam [Example 7] | able to block TNF-alpha stimulation | block TNF-alpha stimulation to a similar extent to dexamethasone | –
C=CCCCCCCCCC(=O)N[C@H]1CCC(=O)NC1=O [NR58,4, (S)-3-(undec-10-enoyl)-aminoglutarimide] | – | – | stability of the aminoglutarimide ring in serum [2]: susceptible to enzymatic ring opening in serum
(S)-(Z)-3-(hexadec-9-enoyl)amino-caprolactam [Example 9] | able to block TNF-alpha stimulation | block TNF-alpha stimulation to a similar extent to dexamethasone | –
(S)-3-(2′,2′-Dimethyl-propionyl)amino-caprolactam [Example 20] | able to block TNF-alpha stimulation | block TNF-alpha stimulation to a similar extent to dexamethasone | –
